Data: patent publication US20070160664A1, “Pharmaceutical compositions comprising of proton pump inhibitor and prokinetic agent” (PANACEA BIOTEC LIMITED, priority 2004, published 2007)

Experiment: Dissolution of domperidone co-processed with an organic acid (developmental studies)
Assay type: physicochemical
Conditions: alkaline pH conditions encountered in the gastro-intestinal tract
From the text: According to a preferred embodiment of the invention, domperidone is co-processed with an organic acid in the ratio of from about 1:0.25 to about 0.25:1, preferably from about 1:0.5 to about 0.5:1, most preferably about 1:1. The co-processing may be aided by dissolving the two ingredients with the help of heat followed by cooling, when the dissolved material separates out. The material separated out may be removed and dried. The co-processed material may be incorporated into dosage forms such as tablets, which may further be combined with enteric coated tablets of proton pump inhibitor and an immediate release tablet of domperidone, in a hard gelatin capsule.

- dissolution: improved dissolution
Structure (SMILES): O=c1[nH]c2ccccc2n1CCCN1CCC(n2c(=O)[nH]c3cc(Cl)ccc32)CC1 [domperidone]
